Paper PMC12588083, “Validated antimalarial drug target discovery using genome-scale metabolic modeling” (Antimicrobial Agents and Chemotherapy, 2025)
Entries after “also recorded” stand apart in the source; their conditions may differ.

Key:
[1] = target: recombinant PfUCK (P. falciparum UMP-CMP kinase, PfUCK-Δ23) (Plasmodium falciparum, UniProt Q8I231); assay: Inhibition constant (Ki) determination, coupled PK/LDH NADH assay, recombinant PfUCK; format: biochemical
Procedure: (§1) The hydrophobic core at the protein’s N-terminus may cause poor expression and low solubility in E. coli. Therefore, a truncated gene was created where the ORF began at amino acid residues 24–371, encoding a 348 amino acid protein. […] Briefly, protein expression was induced with isopropyl-D-thiogalactoside, incubated at 16°C with shaking at 200 RPM for 20 hours, and the cell pellet resuspended in binding buffer (50 mM Tris [pH 7.6], 300 mM NaCl, 20 mM imidazole, 5% glycerol, and 0.075% β-mercaptoethanol), with cell disruption using an Avestin C3 Cell Disrupter. Cell debris was removed, and the UCK was purified by Ni-NTA affinity purification. The protein was eluted from the column using a linear gradient of imidazole ([…]) in elution buffer (50 mM Tris [pH 7.6], 300 mM NaCl, 5% glycerol, and 0.075% β-mercaptoethanol). […] The concentrated protein was then stored at −70°C in a storage buffer (25 mM Tris-HCl, 50 mM KCl, and 20% glycerol; pH 7.0).
(§2) The final concentration of dimethyl sulfoxide (Merck, Catalog number 472301) in the assay reaction was maintained at 1%.

[2] = system: recombinant PfUCK (P. falciparum UMP-CMP kinase, PfUCK-Δ23); assay: as above; format: biochemical, Plasmodium falciparum; details: hUCK versus PfUCK
Procedure: as §1, §2

[3] = target: T1, recombinant human UMP-CMP kinase (hUCK) (Homo sapiens, UniProt P30085); assay: Inhibition constant (Ki) determination, coupled PK/LDH NADH assay, hUCK; format: biochemical; details: for Ki—hUCK: 1 mM CMP, competitive equation
T1 construct: constructed by amplifying its ORF from an available commercial plasmid; His tag (vector-encoded by pET28a; the text names only the HisPur Ni-NTA and His GraviTrap TALON columns) (N); host or cells: E. coli BL21 (DE3) with extra argU, ileY and leuW tRNA genes
T1 sequence (P30085 1-228 isoform P30085-3): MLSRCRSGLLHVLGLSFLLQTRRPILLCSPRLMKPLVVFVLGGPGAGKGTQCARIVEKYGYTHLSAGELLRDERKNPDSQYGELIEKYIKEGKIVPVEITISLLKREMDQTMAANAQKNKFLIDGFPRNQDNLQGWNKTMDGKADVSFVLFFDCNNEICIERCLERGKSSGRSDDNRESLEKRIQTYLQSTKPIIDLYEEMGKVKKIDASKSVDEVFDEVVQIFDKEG
Procedure: The protein was purified with a HisPur Ni-NTA Spin column, and elution was performed with 250 mM imidazole in elution buffer (50 mM Tris-HCl, 750 mM NaCl, and 10% glycerol; pH 7.5). The protein was further purified using a His GraviTrap TALON column (Cytiva, catalog number 29-0005-94). The buffers employed were binding buffer (50 mM potassium phosphate [KP], 100 mM NaCl, and 10% glycerol; pH 8.0), washing buffer (50 mM KP, 500 mM NaCl, 10 mM imidazole, and 10% glycerol; pH 8.0), and elution buffer (50 mM Tris-HCl, 750 mM NaCl, 250 mM imidazole, and 10% glycerol; pH 7.5). The purified protein was desalted using a PD-10 column (Sephadex G25 M; Cytiva, catalog number 17085101) stored in a storage buffer (25 mM Tris-HCl, 50 mM KCl, and 20% glycerol; pH 7.0). Purity of the recombinant protein was verified via SDS-PAGE (Mini-Protein TGX Precast Gels; Bio-Rad), and its concentration was determined using a Bradford protein assay (Bio-Rad, catalog number 5000006).
as §2

[4] = system: P. falciparum 3D7; assay: Antiplasmodial activity (IC50), SYBR Green fluorescence, 48 hours; format: cell-based, Plasmodium falciparum
Procedure: P. falciparum 3D7 parasites underwent two synchronization cycles with D-sorbitol initiating the inhibitor testing. Parasitemia and hematocrit were adjusted to 0.5% and 3%, respectively. Synchronized ring parasites were cultured in 96-well plates in complete RPMI medium with varying inhibitor concentrations. Inhibitor stock solutions, mostly at 100 mM, were prepared in DMSO. […] Triplicate wells were prepared for each compound. Negative controls included wells with uninfected red cells (3% hematocrit) in complete RPMI medium.
Culture plates were incubated in a chamber with controlled gas conditions at 37°C. After 48 hours, parasites were quantified using a fluorescence-based assay with SYBR Green dye as previously described ([51]). Lysis buffer containing SYBR Green was added to each well, and plates were incubated at room temperature for 45 minutes and protected from the light. Fluorescence was measured using a microplate reader (POLARstar OPTIMA, BMG Labtech) with excitation at 485 nm and detection at 520 nm. Background fluorescence of uninfected red cells was subtracted, and dose-response curves were plotted against inhibitor concentration. IC50 values were determined using nonlinear regression curve fitting in GraphPad Prism software.

[5] = target: T2, hUCK (Homo sapiens, UniProt P30085); details: read-out: Km hUCK; phosphate acceptor; literature values ref 66; cited from earlier work
[6] = target: T2, hUCK; details: hUCK versus PfUCK
Procedure: (§3) Enzyme activity was assessed using an indirect spectrophotometric assay that measured NADH absorbance at 340 nm coupled to pyruvate kinase/lactate dehydrogenase. The reaction mixture contained 50 mM Tris-HCl (pH 7.6), 50 mM KCl, 10 mM MgCl2, 5 mM ATP, 0.2 mM NADH, 1 mM phosphoenolpyruvate, 10 mM dithiothreitol, pyruvate kinase (10 U/mL), lactate dehydrogenase (15 U/mL), and purified UCK (OD340/min of 0.04–0.06). […] The decrease in absorbance was monitored using a UV/visible spectrophotometer (Ultrospec 2100 Pro).
(§4) Then, a reaction rate was calculated from the decrease in absorbance at 340 nm (εNADH = 6.22 × 10^−3 M^−1 cm^−1) compared to the control reaction in which UCK was absent. The maximum reaction rate (Vmax) and Michaelis constant (Km) values were calculated using the Michaelis-Menten equation (v = Vmax[S] /Km+ [S]), where v is the reaction rate and [S] is the substrate concentration.

[7] = target: T3, PfUCK (Plasmodium falciparum, UniProt Q8I231); assay: UCK characterization: Km for nucleoside monophosphate substrates, PfUCK; format: biochemical; details: UMP versus CMP
T3 sequence (Q8I231 24-371): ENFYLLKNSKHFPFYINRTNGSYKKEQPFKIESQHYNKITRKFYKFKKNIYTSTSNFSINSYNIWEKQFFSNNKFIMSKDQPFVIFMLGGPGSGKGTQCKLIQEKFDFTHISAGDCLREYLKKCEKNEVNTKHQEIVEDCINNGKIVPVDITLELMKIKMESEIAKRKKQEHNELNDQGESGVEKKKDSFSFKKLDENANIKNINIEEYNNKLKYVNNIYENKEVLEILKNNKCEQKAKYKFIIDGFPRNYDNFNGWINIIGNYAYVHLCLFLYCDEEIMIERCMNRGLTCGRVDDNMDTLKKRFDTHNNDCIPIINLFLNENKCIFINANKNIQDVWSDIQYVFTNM
Procedure: as §3, §4

[8] = substrate: Nc1ccn([C@H]2C[C@H](O)[C@@H](COP(=O)(O)O)O2)c(=O)n1; assay: as above; format: biochemical, Plasmodium falciparum; details: other: phosphate acceptor, ATP as phosphate donor, 25°C, pH 7.6
Procedure: as §3, §4

[9] = substrate: O=c1ccn([C@@H]2O[C@H](COP(=O)(O)O)[C@@H](O)[C@H]2O)c(=O)[nH]1; assay: as above; format: biochemical, Plasmodium falciparum; details: other: phosphate acceptor, ATP as phosphate donor, 25°C, pH 7.6
Procedure: as §3, §4

[10] = substrate: O=c1ccn([C@@H]2O[C@H](COP(=O)(O)O)[C@@H](O)[C@H]2O)c(=O)[nH]1; assay: purified protein, by the assay type; details: other: phosphate acceptor, ATP as phosphate donor, 25°C, pH 7.6
[11] = Table 3, acrylamide and chloroacetamide compounds
[12] = Plasmodium falciparum, 3D7, 48 h, Table 5
[13] = Table 4, benzoylacetonitrile derivatives
[14] = Plasmodium falciparum, 3D7, 48 h, Supplementary Table 7, benzoylacetonitrile derivatives
[15] = Supplementary Table 7, benzoylacetonitrile derivatives

C=CC(=O)NCc1cc(=O)n2ccccc2n1 [Compound C43]
Ki [1]: 4.15 ± 0.26 µM
Selectivity index ([2]; Table 3): 1.09
Ki [3]: 4.55 ± 0.52 µM
Ki—hUCK [3, 11]: inhibited hUCK activity
IC50 [4, 12]: > 1000 µM

N#CCC(=O)c1cccc(F)c1 [Compound C38]
Ki [1]: 1.66 ± 0.27 µM
Ki—hUCK [3, 13]: little or no inhibition of hUCK; also recorded: No inhibition at 0.5 mM
IC50 [4, 14]: > 310 µM
IC50 [4, 15]: 339 ± 26.4 µM

N#CCC(=O)c1cccc(Cl)c1 [Compound C7]
Ki [1]: 4.26 ± 0.55 µM
Selectivity index ([2]; Table 4): >235
Ki—hUCK [3, 13]: little or no inhibition of hUCK; also recorded: No inhibition at 1 mM
IC50 [4, 14]: > 310 µM
IC50 [4, 15]: 380 ± 50.1 µM

Nc1ccn([C@H]2C[C@H](O)[C@@H](COP(=O)(O)O)O2)c(=O)n1 [dCMP]
Km [5]: 900 ± 100 µM

O=c1ccn([C@@H]2O[C@H](COP(=O)(O)O)[C@@H](O)[C@H]2O)c(=O)[nH]1 [UMP]
hUCK Km fold greater than PfUCK [6]: 2.3 fold
Km [5]: 45 ± 10 µM
fold higher Km than CMP, PfUCK [7]: 3.9 fold

CMP
Km [5]: 20 ± 5 µM

N#CCC(=O)c1ccccc1Cl [Compound C39]
Ki [1]: 3.64 ± 0.59 µM
Selectivity index ([2]; Table 4): >275
Ki—hUCK [3, 13]: little or no inhibition of hUCK; also recorded: No inhibition at 1 mM
IC50 - P. falciparum (3D7), µM [4, 15]: no inhibition at 1 mM

N#CCC(=O)c1ccc(Cl)c(Cl)c1 [Compound C12]
Ki [1]: 11.3 ± 2.22 µM
Selectivity index ([2]; Table 4): >89
Ki—hUCK [3, 13]: No inhibition at 1 mM
IC50 - P. falciparum (3D7), µM [4, 15]: no inhibition at 0.5 mM

O=C(CCl)NCc1cc(=O)n2ccccc2n1 [Compound C21]
Ki [1]: 13.7 ± 3.18 µM
Selectivity index ([2]; Table 3): 0.22
Ki [3]: 2.98 ± 0.5 µM
Ki—hUCK [3, 11]: inhibited hUCK activity
IC50 [4, 12]: 15.6 ± 1.13 µM

B1: PfUCK (Plasmodium falciparum 3D7) (protein)
chain: T3 sequence (Q8I231 24-371)
Km [8]: 428 ± 11 µM
Km [9]: 110 ± 14 µM

B2: hUCK (Homo sapiens) (protein)
chain: T1 sequence (P30085 1-228 isoform P30085-3)
Km [10]: 47.7 ± 3.2 µM
